Measurements reported in US9182666B2, “Cyclic compound, method for producing the same, radiation-sensitive composition, and resist pattern formation method” (MITSUBISHI GAS CHEMICAL COMPANY, INC., priority 2011, dated 2015).

Assay: Solubility test of compound in safe solvent
Type: physicochemical
Conditions: 23° C.; for dissolution amount in CHN: cyclohexanone (CHN); for dissolution amount in PGME: propylene glycol monomethyl ether (PGME)
Method: The dissolution amounts of compounds obtained in the above synthesis examples 1 to 6 and syntheses 1 and 2 in propylene glycol monomethyl ether (PGME) and cyclohexanone (CHN) were evaluated as follows.
• A: 5.0% by mass≦dissolution amount • B: 3.0% by mass≦dissolution amount<5.0% by mass • C: dissolution amount<3.0% by mass *dissolution amount (% by mass)=mass (g) of compound dissolved in 100 g of solvent of 23° C./(100 g of mass of solvent+mass (g) of compound dissolved in 100 g of solvent of 23° C.)×100

| SMILES | dissolution amount in CHN | dissolution amount in PGME |
| --- | --- | --- |
| CC(C)c1ccc(C2c3cc(c(O)cc3O)C(c3ccc(C(C)C)cc3)c3cc(c(O)cc3O)C(c3ccc(C(C)C)cc3)c3cc(c(O)cc3O)C(c3ccc(C(C)C)cc3)c3cc2c(O)cc3O)cc1 (stereo not shown) [CR-1A] | C (dissolution amount<3.0% by mass) | B (3.0% by mass≦dissolution amount<5.0% by mass) |
| Oc1cc(O)c2cc1C(c1ccc(C3CCCCC3)cc1)c1cc(c(O)cc1O)C(c1ccc(C3CCCCC3)cc1)c1cc(c(O)cc1O)C(c1ccc(C3CCCCC3)cc1)c1cc(c(O)cc1O)C2c1ccc(C2CCCCC2)cc1 (stereo not shown) [CR-2A] | B (3.0% by mass≦dissolution amount<5.0% by mass) | B (3.0% by mass≦dissolution amount<5.0% by mass) |
